Data from ChEMBL document CHEMBL1629593 (Antimicrob Agents Chemother, 2009).
Activity calls are given as the source filed them. The rule behind the calls is not given here.

Experiments:
Staphylococcus aureus [1] = assay: fCmin in heterogeneous vancomycin-intermediate Staphylococcus aureus 1629 infected in vivo pharmacodynamic model at 2000 mg treated every 12 hrs; format: ADME, organism-based
Staphylococcus aureus [2] = assay: fCmin in heterogeneous vancomycin-intermediate Staphylococcus aureus Mu3 infected in vivo pharmacodynamic model at 5000 mg treated every 12 hrs; format: ADME, organism-based
Staphylococcus aureus [3] = assay: fCmin in heterogeneous vancomycin-intermediate Staphylococcus aureus 1629 infected in vivo pharmacodynamic model at 750 mg treated every 12 hrs; format: ADME, organism-based
Staphylococcus aureus [4] = assay: Antibacterial activity against heterogeneous vancomycin-intermediate Staphylococcus aureus Mu3 infected in […] pharmacodynamic model at 1000 mg treated every 12 hrs measured after 48 hrs post dose; format: functional
Staphylococcus aureus [5] = assay: fCmin in multidrug-resistant Staphylococcus aureus 3286 infected […] pharmacodynamic model at 4000 mg treated every 12 hrs; format: ADME, organism-based
[6] = Ratio of fAUC in […] pharmacodynamic model to MIC for heterogeneous vancomycin-intermediate Staphylococcus aureus Mu3 at 1000 mg treated every 12 hrs; format: functional
Staphylococcus aureus [7] = assay: fCmin in multidrug-resistant Staphylococcus aureus 3286 infected in vivo pharmacodynamic model at 2000 mg treated every 12 hrs; format: ADME, organism-based
[8] = Ratio of fAUC in […] pharmacodynamic model to MIC for heterogeneous vancomycin-intermediate Staphylococcus aureus 1629 at 2000 mg treated every 12 hrs; format: functional
[9] = Ratio of fAUC in […] pharmacodynamic model to MIC for multidrug-resistant Staphylococcus aureus; format: functional
[10] = Ratio of fAUC in […] pharmacodynamic model to MIC for multidrug-resistant Staphylococcus aureus 3286 at 2000 mg treated every 12 hrs; format: functional
[11] = Ratio of fAUC in […] pharmacodynamic model to MIC for multidrug-resistant Staphylococcus aureus 3286 at 4000 mg treated every 12 hrs; format: functional
[12] = Ratio of fAUC in […] pharmacodynamic model to MIC for multidrug-resistant Staphylococcus aureus 3286 at 1500 mg treated every 12 hrs; format: functional
[13] = Ratio of fAUC in […] pharmacodynamic model to MIC for heterogeneous vancomycin-intermediate Staphylococcus aureus 1629 at 4000 mg treated every 12 hrs; format: functional
Staphylococcus aureus [14] = assay: Antibacterial activity against heterogeneous vancomycin-intermediate Staphylococcus aureus Mu3 infected in […] pharmacodynamic model at 2500 mg treated every 12 hrs measured after 48 hrs post dose; format: functional
Staphylococcus aureus [15] = assay: fCmin in heterogeneous vancomycin-intermediate Staphylococcus aureus Mu3 infected in vivo pharmacodynamic model at 2250 mg treated every 12 hrs; format: ADME, organism-based
Staphylococcus aureus [16] = assay: Antibacterial activity against heterogeneous vancomycin-intermediate Staphylococcus aureus 1629 infected in […] pharmacodynamic model at 700 mg treated every 12 hrs measured after 72 hrs post dose; format: functional
Staphylococcus aureus [17] = assay: fCmin in heterogeneous vancomycin-intermediate Staphylococcus aureus Mu3 infected […] pharmacodynamic model at 2000 mg treated every 12 hrs; format: ADME, organism-based
[18] = Ratio of fAUC in […] pharmacodynamic model to MIC for heterogeneous vancomycin-intermediate Staphylococcus aureus 1629 at 750 mg treated every 12 hrs; format: functional
Staphylococcus aureus [19] = assay: Antibacterial activity against heterogeneous vancomycin-intermediate Staphylococcus aureus Mu3 infected in […] pharmacodynamic model at 2500 mg treated every 12 hrs measured after 24 hrs post dose; format: functional
[20] = Ratio of fAUC in […] pharmacodynamic model to MIC for heterogeneous vancomycin-intermediate Staphylococcus aureus Mu3 at 2500 mg treated every 12 hrs; format: functional
Staphylococcus aureus [21] = assay: fCmin in heterogeneous vancomycin-intermediate Staphylococcus aureus Mu3 infected […] pharmacodynamic model at 1000 mg treated every 12 hrs; format: ADME, organism-based
[22] = Ratio of fAUC in […] pharmacodynamic model to MIC for heterogeneous vancomycin-intermediate Staphylococcus aureus Mu3 at 5000 mg treated every 12 hrs; format: functional
[23] = Ratio of fAUC in […] pharmacodynamic model to MIC for multidrug-resistant Staphylococcus aureus 3286 at 1000 mg treated every 12 hrs; format: functional
Staphylococcus aureus [24] = assay: fCmin in heterogeneous vancomycin-intermediate Staphylococcus aureus Mu3 infected in vivo pharmacodynamic model at 1500 mg treated every 12 hrs; format: ADME, organism-based
Staphylococcus aureus [25] = assay: fCmin in heterogeneous vancomycin-intermediate Staphylococcus aureus 1629 infected in vivo pharmacodynamic model at 1500 mg treated every 12 hrs; format: ADME, organism-based
[26] = Ratio of fAUC in […] pharmacodynamic model to MIC for heterogeneous vancomycin-intermediate Staphylococcus aureus Mu3 at 2000 mg treated every 12 hrs; format: functional
Staphylococcus aureus [27] = assay: Antibacterial activity against heterogeneous vancomycin-intermediate Staphylococcus aureus Mu3 infected in […] pharmacodynamic model at 1000 mg treated every 12 hrs measured after 24 hrs post dose; format: functional
[28] = Ratio of fAUC in […] pharmacodynamic model to MIC for heterogeneous vancomycin-intermediate Staphylococcus aureus Mu3 at 750 mg treated every 12 hrs; format: functional
Staphylococcus aureus [29] = assay: fCmin in heterogeneous vancomycin-intermediate Staphylococcus aureus 1629 infected in vivo pharmacodynamic model at 1750 mg treated every 12 hrs; format: ADME, organism-based
Staphylococcus aureus [30] = assay: Antibacterial activity against heterogeneous vancomycin-intermediate Staphylococcus aureus Mu3 infected in […] pharmacodynamic model at 1500 mg treated every 12 hrs measured after 48 hrs post dose; format: functional
Staphylococcus aureus [31] = assay: fCmin in heterogeneous vancomycin-intermediate Staphylococcus aureus 1629 infected […] pharmacodynamic model at 1000 mg treated every 12 hrs; format: ADME, organism-based
[32] = Ratio of fAUC in […] pharmacodynamic model to MIC for heterogeneous vancomycin-intermediate Staphylococcus aureus Mu3 at 2250 mg treated every 12 hrs; format: functional
Staphylococcus aureus [33] = assay: Antibacterial activity against multidrug-resistant Staphylococcus aureus 3286 infected in […] pharmacodynamic model at 4000 mg treated every 12 hrs measured after 72 hrs post dose; format: functional
Staphylococcus aureus [34] = assay: fCmin in multidrug-resistant Staphylococcus aureus 3286 infected in vivo pharmacodynamic model at 1500 mg treated every 12 hrs; format: ADME, organism-based
Staphylococcus aureus [35] = assay: Antibacterial activity against multidrug-resistant Staphylococcus aureus 3286 infected in […] pharmacodynamic model at 2000 mg treated every 12 hrs measured after 48 hrs post dose; format: functional
Staphylococcus aureus [36] = assay: Antibacterial activity against multidrug-resistant Staphylococcus aureus 3286 infected in in vitro pharmacodynamic model at 1000 to 2000 mg treated every 12 hrs using 10^6 CFU/ml inoculum by time-kill analysis; format: functional, organism-based
Staphylococcus aureus [37] = assay: fCmin in heterogeneous vancomycin-intermediate Staphylococcus aureus 1629 infected in vivo pharmacodynamic model at 4000 mg treated every 12 hrs; format: ADME, organism-based
Staphylococcus aureus [38] = assay: fCmin in heterogeneous vancomycin-intermediate Staphylococcus aureus Mu3 infected in vivo pharmacodynamic model at 700 mg treated every 12 hrs; format: ADME, organism-based
[39] = Ratio of fAUC in […] pharmacodynamic model to MIC for heterogeneous vancomycin-intermediate Staphylococcus aureus 1629 at 1000 mg treated every 12 hrs; format: functional
Staphylococcus aureus [40] = assay: fCmin in multidrug-resistant Staphylococcus aureus 3286 infected […] pharmacodynamic model at 1000 mg treated every 12 hrs; format: ADME, organism-based
Staphylococcus aureus [41] = assay: fCmin in heterogeneous vancomycin-intermediate Staphylococcus aureus Mu3 infected in vivo pharmacodynamic model at 2500 mg treated every 12 hrs; format: ADME, organism-based

CN[C@H](CC(C)C)C(=O)N[C@H]1C(=O)N[C@@H](CC(N)=O)C(=O)N[C@H]2C(=O)N[C@H]3C(=O)N[C@H](C(=O)N[C@H](C(=O)O)c4cc(O)cc(O)c4-c4cc3ccc4O)[C@H](O)c3ccc(c(Cl)c3)Oc3cc2cc(c3O[C@@H]2O[C@H](CO)[C@@H](O)[C@H](O)[C@H]2O[C@H]2C[C@](C)(N)[C@H](O)[C@H](C)O2)Oc2ccc(cc2Cl)[C@H]1O [VANCOMYCIN]
fCmin (Staphylococcus aureus [1]): 12 mg/L
fCmin (Staphylococcus aureus [2]): 26 mg/L
fCmin (Staphylococcus aureus [3]): 3 mg/L
CFU/ml (Staphylococcus aureus [4]): 3
fCmin (Staphylococcus aureus [5]): 22 mg/L
fAUC/MIC [6]: 168
fCmin (Staphylococcus aureus [7]): 12 mg/L
fAUC/MIC [8]: 271
fAUC/MIC [9]: >=180
fAUC/MIC [10]: 1084
fAUC/MIC [11]: 2576
fAUC/MIC [12]: 992
fAUC/MIC [13]: 644
CFU/ml (Staphylococcus aureus [14]): 2
fCmin (Staphylococcus aureus [15]): 12 mg/L
CFU/ml (Staphylococcus aureus [16]): 3
fCmin (Staphylococcus aureus [17]): 11 mg/L
fAUC/MIC [18]: 105
CFU/ml (Staphylococcus aureus [19]): 2
fAUC/MIC [20]: 374
fCmin (Staphylococcus aureus [21]): 4 mg/L
fAUC/MIC [22]: 799
fAUC/MIC [23]: 552
fCmin (Staphylococcus aureus [24]): 7 mg/L
fCmin (Staphylococcus aureus [25]): 7 mg/L
fAUC/MIC [26]: 269
CFU/ml (Staphylococcus aureus [27]): 2
fAUC/MIC [28]: 105
fCmin (Staphylococcus aureus [29]): 10 mg/L
CFU/ml (Staphylococcus aureus [30]): 3
fCmin (Staphylococcus aureus [31]): 3 mg/L
fAUC/MIC [32]: 317
CFU/ml (Staphylococcus aureus [33]): 0.5
fCmin (Staphylococcus aureus [34]): 7 mg/L
CFU/ml (Staphylococcus aureus [35]): 0.5
Activity (Staphylococcus aureus [36]): Active
fCmin (Staphylococcus aureus [37]): 22 mg/L
fCmin (Staphylococcus aureus [38]): 3 mg/L
fAUC/MIC [39]: 138
fCmin (Staphylococcus aureus [40]): 3 mg/L
fCmin (Staphylococcus aureus [41]): 16 mg/L
